Assay results from publication PMC3684244 (Harmful algae, 2013).
Values joined by “and” are separate entries in the source; they are usually repeats but may differ in a detail not shown here. Equal entries are not always repeated.

Key:
[1] = test system: brevenal site on voltage-sensitive sodium channels (VSSCs), rat brain synaptosomes; assay type: binding
[2] = biological target: site 5 on voltage-sensitive sodium channels (VSSCs), rat brain synaptosomes; details: read-out: Ki for inhibition of [^3H]-PbTx-3 binding
[3] = test system: site 5 on voltage-sensitive sodium channels (VSSCs), rat brain synaptosomes; details: cited from earlier work

Compound | Inhibition of [^3H]-brevenol binding (maximum concentration tested) [1] | also measured
N=C(N)NC(=O)c1nc(Cl)c(N)nc1N [Amiloride] | No displacement (10 ! M) | 
C=C/C=C\CC[C@H]1O[C@H]2CC[C@@]3(C)O[C@H]4[C@@H](O)C[C@@]5(C)O[C@@H](CC/C=C(C)/C(C)=C/C=O)[C@@H](C)C[C@H]5O[C@@H]4C[C@@H]3O[C@@H]2CC[C@@]1(C)O [Brevenal, brevenal] |  | Ki ([1]; read-out: Ki for inhibition of [^3H]-brevenol binding): 75 nM and 74.8 nM; Ki [2]: 98 nM; Affinity for inhibiting brevetoxin binding relative to brevetoxins (fold lower) [3]: approximately 100 fold
CC1(C)[C@H](C(=O)O[C@H](C#N)c2cccc(Oc3ccccc3)c2)[C@@H]1C=C(Br)Br [Deltamethrin] | No displacement (100 ! M) | 
NC1=N[C@H](O)[C@H]2[C@H]3O[C@]4(O)O[C@@H]([C@@H](O)[C@@]2(N1)[C@@H]4O)[C@]3(O)CO [Tetrodotoxin] | No displacement (10 ! M) | 
COc1ccc(C(=O)O[C@H]2CC[C@@]3(C)[C@@H]4CC[C@H]5[C@]6(O)C[C@H](O)[C@@]7(O)[C@@H](CN8C[C@@H](C)CC[C@H]8[C@@]7(C)O)[C@]6(O)C[C@@]53O[C@]24O)cc1OC [Veratridine] | No displacement (10 ! M) | 
CCN1C[C@]2(COC)[C@H](O)C[C@H](OC)[C@@]34[C@@H]5C[C@@]6(O)[C@H](OC(=O)c7ccccc7)[C@@H]5[C@@](OC(C)=O)([C@@H]([C@H](OC)[C@H]23)[C@@H]14)[C@@H](O)[C@@H]6OC [aconitine] | No displacement (10 ! M) | 
